Test results as given in patent US12065404B2, “C4-carboxylic acid-substituted tryptamine derivatives and methods of using” (priority 2022, dated 2024).
Where “and” joins values, the source holds several entries; their conditions need not be identical. Identical values can stand only once.

Legend:
[1] = Mouse pharmacokinetic (PK) study, parent compound and psilocin metabolite in plasma; type: in vivo, C57Bl/6 mice; conditions: for bioavailability: male, C57Bl/6, mouse, plasma, po, no footnote on basis (Table 36B)
Source text: Briefly, the procedure was as follows. […] 19, 2022.

5-HT1A receptor = target: T1, 5-HT1A receptor (Homo sapiens, UniProt P08908); test: cAMP-Glo assay of 5-HT1A receptor modulation, +5-HT1A (CHO-K1/5-HT1A/Ga15) vs -5-HT1A (CHO-K1/Ga15) cells; type: cell-based; design: dose or concentration left out as unconfirmed; conditions: +5-HT1A vs -5-HT1A cell cultures stimulated with forskolin, increasing ligand concentrations
T1 construct: host or cells: CHO-K1 (co-expressing Ga15)
T1 sequence (P08908 1-422): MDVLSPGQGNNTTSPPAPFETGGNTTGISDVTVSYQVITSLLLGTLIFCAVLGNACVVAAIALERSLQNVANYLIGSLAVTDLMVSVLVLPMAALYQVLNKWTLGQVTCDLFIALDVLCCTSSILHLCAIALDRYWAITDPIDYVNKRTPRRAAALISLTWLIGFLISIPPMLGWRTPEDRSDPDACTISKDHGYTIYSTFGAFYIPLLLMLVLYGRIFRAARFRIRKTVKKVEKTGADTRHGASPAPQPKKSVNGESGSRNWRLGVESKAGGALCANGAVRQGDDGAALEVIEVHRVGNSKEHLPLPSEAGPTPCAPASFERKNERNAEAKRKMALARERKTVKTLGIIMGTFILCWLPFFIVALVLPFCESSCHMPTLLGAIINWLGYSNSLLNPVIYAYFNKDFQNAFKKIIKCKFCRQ

GABAA = GABAA (Homo sapiens, UniProt P14867+P18507+P47870); type: cell-based; conditions: ion channel
Sequence of GABAA (P14867 28-456): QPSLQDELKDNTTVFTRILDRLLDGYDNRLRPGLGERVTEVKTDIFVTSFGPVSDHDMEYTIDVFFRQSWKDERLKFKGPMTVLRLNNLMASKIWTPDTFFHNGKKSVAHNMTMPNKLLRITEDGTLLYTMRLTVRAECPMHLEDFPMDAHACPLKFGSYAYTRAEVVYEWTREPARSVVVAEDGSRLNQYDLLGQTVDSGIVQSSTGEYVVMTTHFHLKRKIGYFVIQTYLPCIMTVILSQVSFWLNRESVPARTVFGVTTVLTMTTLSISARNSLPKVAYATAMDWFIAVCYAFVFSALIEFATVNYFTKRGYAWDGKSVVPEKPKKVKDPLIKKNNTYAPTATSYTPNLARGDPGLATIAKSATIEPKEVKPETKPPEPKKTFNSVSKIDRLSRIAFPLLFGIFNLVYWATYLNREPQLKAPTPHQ
Sequence of GABAA (P47870 26-512): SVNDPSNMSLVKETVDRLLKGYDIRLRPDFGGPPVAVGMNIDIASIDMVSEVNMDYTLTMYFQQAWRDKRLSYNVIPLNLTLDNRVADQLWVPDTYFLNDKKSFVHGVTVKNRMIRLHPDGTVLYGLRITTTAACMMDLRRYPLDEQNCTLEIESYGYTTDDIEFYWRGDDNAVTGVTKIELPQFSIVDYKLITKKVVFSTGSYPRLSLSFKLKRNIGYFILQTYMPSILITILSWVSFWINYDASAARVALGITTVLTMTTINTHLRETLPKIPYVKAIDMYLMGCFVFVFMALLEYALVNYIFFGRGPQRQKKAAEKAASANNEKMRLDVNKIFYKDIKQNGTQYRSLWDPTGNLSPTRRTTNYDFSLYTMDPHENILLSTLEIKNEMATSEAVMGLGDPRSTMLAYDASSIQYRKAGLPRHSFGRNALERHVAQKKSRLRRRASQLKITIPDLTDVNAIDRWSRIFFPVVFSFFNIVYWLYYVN
Sequence of GABAA (P18507 40-475): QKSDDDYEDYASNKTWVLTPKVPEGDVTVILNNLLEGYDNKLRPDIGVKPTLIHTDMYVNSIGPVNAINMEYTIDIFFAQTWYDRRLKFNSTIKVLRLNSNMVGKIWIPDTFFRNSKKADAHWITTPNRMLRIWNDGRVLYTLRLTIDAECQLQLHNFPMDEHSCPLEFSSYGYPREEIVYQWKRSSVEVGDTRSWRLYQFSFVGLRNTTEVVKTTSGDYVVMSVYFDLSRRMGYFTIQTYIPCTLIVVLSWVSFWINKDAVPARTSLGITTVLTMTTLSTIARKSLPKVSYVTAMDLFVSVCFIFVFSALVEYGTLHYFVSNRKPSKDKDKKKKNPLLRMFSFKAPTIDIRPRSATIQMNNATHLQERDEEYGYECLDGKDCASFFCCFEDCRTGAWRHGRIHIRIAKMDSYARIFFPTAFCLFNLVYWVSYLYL

[2] = target: T2, neuronal 5-HT2A receptor (5-HT2AR) (Mus musculus, UniProt P35363); test: Drug-induced Head Twitch Response (HTR) in mice; type: in vivo, C57BL/6-Elite mice; conditions: 1 mg/kg i.p., 15-to-30-minute window post-drug, relative to vehicle-treated control mice
T2 construct: HTR was measured in mice treated with a control and test compounds; tissue Charles River; host or cells: live C57BL/6-Elite mice (neuronal receptor)
T2 sequence (P35363 whole entry): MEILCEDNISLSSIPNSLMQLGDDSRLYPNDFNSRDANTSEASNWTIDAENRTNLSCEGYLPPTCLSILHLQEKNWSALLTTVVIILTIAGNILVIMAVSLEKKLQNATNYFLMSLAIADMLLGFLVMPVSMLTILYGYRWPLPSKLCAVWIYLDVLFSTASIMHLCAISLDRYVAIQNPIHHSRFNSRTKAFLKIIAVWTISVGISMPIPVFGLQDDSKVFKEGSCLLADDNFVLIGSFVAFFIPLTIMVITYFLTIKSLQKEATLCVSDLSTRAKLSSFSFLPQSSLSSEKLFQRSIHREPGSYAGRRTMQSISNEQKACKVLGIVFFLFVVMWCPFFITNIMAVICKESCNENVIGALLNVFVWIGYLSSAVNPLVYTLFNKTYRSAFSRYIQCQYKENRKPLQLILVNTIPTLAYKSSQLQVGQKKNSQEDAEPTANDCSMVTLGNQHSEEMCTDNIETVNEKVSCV

[3] = administered compound itself in plasma, 1 mg/kg i.v., mean ± SD
[4] = administered compound itself in plasma, 1 mg/kg oral, individual animals, 1 mg/kg
[5] = administered compound itself in plasma, 1 mg/kg oral, mean ± SD
[6] = administered compound itself in plasma, 3 mg/kg oral, individual animals, 3 mg/kg
[7] = administered compound itself in plasma, 3 mg/kg oral, mean ± SD
[8] = plasma C(XX), 3 mg/kg p.o. C(XX), mean
[9] = plasma C(XX), 10 mg/kg oral C(XX), animals M58-M60, 10 mg/kg
[10] = plasma C(XX), 10 mg/kg oral C(XX), mean (n = 2)
[11] = plasma C(XX), 10 mg/kg oral C(XX), mean ± SD
[12] = plasma C(XX), 10 mg/kg oral C(XX), mean ± SD, 10 mg/kg

CN(C)CCc1c[nH]c2cccc(OC(=O)c3cccc4c3OCCO4)c12 [C(XX)]
AUC0-inf/Dose [1, 3]: 53.0 ± 8.26 kg·ng·h/mL/mg
AUC0-tlast/Dose [1, 3]: 52.8 ± 8.30 kg·ng·h/mL/mg
MRT0-inf [1, 3]: 24.7 ± 2.27 min
Cmax [1, 4]: 0.509 ng/mL and 0.648 ng/mL
Cmax/Dose [1, 4]: 0.702 kg·ng/mL/mg and 0.509 kg·ng/mL/mg and 0.648 kg·ng/mL/mg
tmax [1, 4]: 15 min
Cmax [1, 5]: 0.620 ± 0.0996 ng/mL
Cmax/Dose [1, 5]: 0.620 ± 0.0996 kg·ng/mL/mg
AUC0-inf [1, 6]: 1.72 ng·h/mL and 1.53 ng·h/mL
AUC0-inf/Dose [1, 6]: 0.433 kg·ng·h/mL/mg and 0.572 kg·ng·h/mL/mg and 0.510 kg·ng·h/mL/mg
AUC0-tlast [1, 6]: 1.48 ng·h/mL and 1.42 ng·h/mL
AUC0-tlast/Dose [1, 6]: 0.406 kg·ng·h/mL/mg and 0.494 kg·ng·h/mL/mg and 0.474 kg·ng·h/mL/mg
Apparent t1/2 [1, 6]: 40.1 min and 28.9 min
Cmax [1, 6]: 1.72 ng/mL and 1.93 ng/mL
Cmax/Dose [1, 6]: 0.497 kg·ng/mL/mg and 0.573 kg·ng/mL/mg and 0.643 kg·ng/mL/mg
MRT0-inf [1, 6]: 64.8 min and 49.4 min
AUC0-inf [1, 7]: 1.51 ± 0.210 ng·h/mL
AUC0-inf/Dose [1, 7]: 0.505 ± 0.0700 kg·ng·h/mL/mg
AUC0-tlast [1, 7]: 1.37 ± 0.137 ng·h/mL
AUC0-tlast/Dose [1, 7]: 0.458 ± 0.0457 kg·ng·h/mL/mg
Cmax [1, 7]: 1.71 ± 0.220 ng/mL
Cmax/Dose [1, 7]: 0.571 ± 0.0734 kg·ng/mL/mg
bioavailability ([1]; 3 mg/kg, 3 mg/kg oral, individual animals): 0.816%
bioavailability ([1]; 3 mg/kg, 3 mg/kg oral, mean ± SD): 0.953 ± 0.132%
AUC0-tlast/Dose ([1]; plasma C(XX), 1 mg/kg i.v. C(XX), mean): 52.8 kg·ng·h/mL/mg
Cmax/Dose ([1]; plasma C(XX), 1 mg/kg p.o. C(XX), mean): 0.620 kg·ng/mL/mg
AUC0-tlast/Dose [1, 8]: 0.458 kg·ng·h/mL/mg
Cmax/Dose [1, 8]: 0.571 kg·ng/mL/mg
F [1, 8]: 0.953%
tmax ([1]; plasma C(XX), 10 mg/kg oral C(XX), animals M58-M60): 15 min
AUC0-inf [1, 9]: 5.40 ng·h/mL and 10.7 ng·h/mL
AUC0-tlast [1, 9]: 5.65 ng·h/mL and 4.99 ng·h/mL and 9.16 ng·h/mL
AUC0-tlast/Dose [1, 9]: 0.565 kg·ng·h/mL/mg and 0.499 kg·ng·h/mL/mg and 0.916 kg·ng·h/mL/mg
F ([1]; plasma C(XX), 10 mg/kg oral C(XX), animals M58-M60, AUC0-tlast used, 10 mg/kg): 1.07% and 0.941% and 1.73%
AUC0-inf [1, 10]: 8.03 ng·h/mL
Apparent t1/2 [1, 10]: 186 min
MRT0-inf [1, 10]: 131 min
AUC0-tlast [1, 11]: 6.60 ± 2.24 ng·h/mL
Cmax [1, 11]: 7.47 ± 3.92 ng/mL
tmax [1, 11]: 15 ± 0 min
AUC0-tlast/Dose [1, 12]: 0.660 ± 0.224 kg·ng·h/mL/mg and 0.660 kg·ng·h/mL/mg
Cmax/Dose [1, 12]: 0.747 ± 0.392 kg·ng/mL/mg and 0.747 kg·ng/mL/mg
F ([1]; plasma C(XX), 10 mg/kg oral C(XX), mean ± SD, AUC0-tlast used, 10 mg/kg): 1.24 ± 0.423% and 1.24%
5-HT1A receptor modulation (reduction of cAMP levels) (5-HT1A receptor): significant receptor modulation
IC50 (GABAA; blocker (BL)): > 100 µM
EC50 (GABAA; opener (OP)): > 100 µM
Incidences of Head Twitch Response (HTR) [2]: Elevated incidences of HTR
